For eight compounds, IC50 and melting point results are on record in patent US6916933B2, “4-pyridinyl-n-acyl-l-phenylalanines” (Hoffman-La Roche Inc., priority 1999, dated 2005).

Data set [1] deals with T1, cell-surface VLA-4 (α4β1 integrin) on Ramos cells binding to immobilized VCAM-1 (Homo sapiens, UniProt P05556+P13612).
T1 construct: Ramos cells bearing cell-surface VLA-4; endogenous in cells; host or cells: Ramos cells (VLA-4); VCAM-1 partner made in CHO cells
Briefly: Ramos (VLA-4)/VCAM-1 Cell-Based Screening Assay (cell adhesion). The following applies: Calcein-AM labeled Ramos cells, VCAM-1 coated plates. How it is done:
Ramos (VLA-4)/VCAM-1 Cell-Based Screening Assay Protocol
Soluble recombinant human VCAM-1 (mixture of 5- and 7-Ig domain) was purified from CHO cell culture media by immunoaffinity chromatography and maintained in a solution containing 0.1 M Tris-glycine (pH 7.5), 0.1 M NaCl, 5 mM EDTA, 1 mM PMSF, […] NaN3 and 10 μg/mL leupeptin. Calcein-AM was purchased from Molecular Probes Inc.
VLA-4 (α4β1 integrin) antagonist activity, defined as ability to compete with cell-surface VLA-4 for binding to immobilized VCAM-1, was quantitated using a Ramos-VCAM-1 cell adhesion assay. Ramos cells bearing cell-surface VLA-4, were labeled with a fluorescent dye (Calcein-AM) and allowed to bind VCAM-1 in the presence or absence of test compounds. A reduction in fluorescence intensity associated with adherent cells (% inhibition) reflected competitive inhibition of VLA-4 mediated cell adhesion by the test compound.
Initially, this entailed coating 96 well plates (Nunc Maxisorp) with recombinant human VCAM-1 (100 ng in 100 μl PBS), sealing each plate and allowing the plates to stand at 4° C. for ≈18 hr. The VCAM-coated plates were subsequently washed twice with 0.05% Tween-20 in PBS, and then blocked for 1 hr (room temperature) with 200 μl of Blocking Buffer (1% BSA/0.02% thimerosal) to reduce non-specific binding. Following the incubation with Blocking Buffer, plates were inverted, blotted and the remaining buffer aspirated. Each plate was then washed with 300 μl PBS, inverted and the remaining PBS aspirated.
Test compounds were dissolved in 100% DMSO and then diluted 1:25 in VCAM Cell Adhesion Assay Buffer (4 mM CaCl2, 4 mM MgCl2 in 50 mM TRIS-HCl, pH 7.5) (final DMSO=4%). A series of eight 1:4 dilutions were performed for each compound (general concentration range of 1 nM-12,500 nM). 100 μl/well of each dilution was added to the VCAM-coated plates, followed by 100 μl of Ramos cells (200,000 cells/well in 1% BSA/PBS). Plates containing test compounds and Ramos cells were allowed to incubate for 45 min at room temperature, after which 165 μl/well PBS was added. Plates were inverted to remove non-adherent cells, blotted and 300 μL/well PBS added. Plates were again inverted, blotted and the remaining buffer gently aspirated. 100 μl Lysis Buffer (0.1% SDS in 50 mM TRIS-HCl, pH 8.5) was added to each well and agitated for 2 min on a rotary shaking platform. The plates were then read for fluorescence intensity on a Cytofluor 2300 (Millipore) fluorecence measurement system (excitation=485 nm, emission=530 nm).
The results are provided in the following Table II (A=IC50<100 nM, B=IC50<10000 nM, C=IC50<5,000 nM): […]

SMILES strings stand for the structures. pIC50: −log10 of the molar value.

T1 sequence (P13612 34-1032): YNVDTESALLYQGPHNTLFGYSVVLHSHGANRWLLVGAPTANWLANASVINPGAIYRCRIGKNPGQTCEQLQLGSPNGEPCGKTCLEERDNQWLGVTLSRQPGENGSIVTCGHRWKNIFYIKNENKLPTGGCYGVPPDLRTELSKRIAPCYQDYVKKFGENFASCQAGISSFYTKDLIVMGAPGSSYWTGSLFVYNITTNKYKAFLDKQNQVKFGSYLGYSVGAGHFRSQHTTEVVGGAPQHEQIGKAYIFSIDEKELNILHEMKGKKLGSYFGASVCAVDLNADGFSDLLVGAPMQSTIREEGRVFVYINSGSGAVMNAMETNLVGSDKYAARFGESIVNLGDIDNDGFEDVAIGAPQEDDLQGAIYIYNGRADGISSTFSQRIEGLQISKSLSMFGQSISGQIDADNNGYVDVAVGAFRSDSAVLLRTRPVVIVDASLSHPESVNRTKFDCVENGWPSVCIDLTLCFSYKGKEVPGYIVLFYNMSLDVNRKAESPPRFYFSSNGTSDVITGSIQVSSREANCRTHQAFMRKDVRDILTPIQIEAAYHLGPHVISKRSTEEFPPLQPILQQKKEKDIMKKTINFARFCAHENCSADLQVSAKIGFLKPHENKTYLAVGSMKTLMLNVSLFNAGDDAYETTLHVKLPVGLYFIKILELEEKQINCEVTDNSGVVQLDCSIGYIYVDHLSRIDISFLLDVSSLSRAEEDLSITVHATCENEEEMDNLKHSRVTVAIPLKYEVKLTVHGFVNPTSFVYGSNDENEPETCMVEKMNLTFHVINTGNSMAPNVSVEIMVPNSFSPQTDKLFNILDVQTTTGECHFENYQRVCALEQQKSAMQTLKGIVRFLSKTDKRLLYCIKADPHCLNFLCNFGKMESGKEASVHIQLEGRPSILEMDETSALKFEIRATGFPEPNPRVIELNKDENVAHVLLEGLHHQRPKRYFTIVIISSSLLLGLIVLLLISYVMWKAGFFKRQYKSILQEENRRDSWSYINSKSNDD
T1 sequence (P05556 21-798): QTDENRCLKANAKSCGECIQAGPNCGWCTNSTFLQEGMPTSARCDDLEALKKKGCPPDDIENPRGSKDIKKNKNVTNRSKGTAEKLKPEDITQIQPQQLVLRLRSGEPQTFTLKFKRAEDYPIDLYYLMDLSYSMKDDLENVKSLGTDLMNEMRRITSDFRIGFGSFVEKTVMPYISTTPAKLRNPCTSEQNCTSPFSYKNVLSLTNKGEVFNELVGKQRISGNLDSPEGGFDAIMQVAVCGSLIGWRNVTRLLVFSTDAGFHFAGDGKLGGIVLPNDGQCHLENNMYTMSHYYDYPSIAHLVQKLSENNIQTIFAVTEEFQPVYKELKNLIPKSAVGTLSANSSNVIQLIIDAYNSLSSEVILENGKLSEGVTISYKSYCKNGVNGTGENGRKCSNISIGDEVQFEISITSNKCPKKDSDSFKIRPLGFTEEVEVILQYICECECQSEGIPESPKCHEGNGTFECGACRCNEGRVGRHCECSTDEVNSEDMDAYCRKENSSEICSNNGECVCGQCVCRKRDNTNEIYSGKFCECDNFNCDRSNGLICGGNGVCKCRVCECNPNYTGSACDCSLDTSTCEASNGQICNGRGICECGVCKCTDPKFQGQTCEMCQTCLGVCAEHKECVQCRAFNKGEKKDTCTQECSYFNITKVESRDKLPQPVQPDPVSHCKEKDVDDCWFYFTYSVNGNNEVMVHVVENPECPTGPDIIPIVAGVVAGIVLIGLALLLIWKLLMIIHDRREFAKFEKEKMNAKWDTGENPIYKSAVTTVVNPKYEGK

The pIC50 is the negative decadic logarithm of the IC50, by convention in mol/L. One may read the melting point as the temperature, or range, at which the solid turns liquid. `Cc1cccc(Cl)c1C(=O)N[C@@H](Cc1ccc(-c2cccn(C)c2=O)cc1)C(=O)O` [Example 30, N-[(2-chloro-6-methylphenyl)carbonyl]-4-(1-methyl-2-oxo-3-pyridinyl)-L-phenylalanine] had a melting point of 204 to 210 °C. In addition, the pIC50 in data set [1] is > 5.00. `Cc1ccn(C)c(=O)c1-c1ccc(C[C@H](NC(=O)c2c(Cl)cccc2Cl)C(=O)O)cc1` [Example 31, N-[(2,6-dichlorophenyl)carbonyl]-4-(1,4-dimethyl-2-oxo-3-pyridinyl)-L-phenylalanine]: the negative-log IC50 (pIC50) in data set [1] was > 5.00. Same read-out and setting: with `Cc1cccc(Cl)c1C(=O)N[C@@H](Cc1ccc(-c2c(C)ccn(C)c2=O)cc1)C(=O)O` [Example 32, N-[(2-chloro-6-methylphenyl)carbonyl]-4-(1,4-dimethyl-2-oxo-3-pyridinyl)-L-phenylalanine] the figure was > 5.00; with `Cc1cc(C(F)(F)F)c(-c2ccc(C[C@H](NC(=O)c3c(Cl)cccc3Cl)C(=O)O)cc2)c(=O)n1C` [Example 33, N-[(2,6-dichlorophenyl)carbonyl]-4-[1,6-dimethyl-4-(trifluoromethyl)-2-oxo-3-pyridinyl]-L-phenylalanine], > 7.00. Regarding `CCc1cccc(C)c1C(=O)N[C@@H](Cc1ccc(-c2c(C(F)(F)F)cc(C)n(C)c2=O)cc1)C(=O)O` [Example 34, N-[(2-ethyl-6-methylphenyl)carbonyl]-4-[1,6-dimethyl-4-(trifluoromethyl)-2-oxo-3-pyridinyl]-L-phenylalanine], the melting point was in the range of 219 to 221 °C. Also, in data set [1], the pIC50 is > 5.00.

For `Cc1cccc(C(C)C)c1C(=O)N[C@@H](Cc1ccc(-c2c(C(F)(F)F)cc(C)n(C)c2=O)cc1)C(=O)O` [Example 35, N-[(2-(1-methylethyl)-6-methylphenyl)carbonyl]-4-[1,6-dimethyl-4-(trifluoromethyl)-2-oxo-3-pyridinyl]-L-phenylalanine], in data set [1], the negative logarithm of the IC50 (pIC50) was > 5.00. `Cc1cccc(Cl)c1C(=O)N[C@@H](Cc1ccc(-c2c(C(F)(F)F)cc(C)n(C)c2=O)cc1)C(=O)O` [Example 36, N-[(2-chloro-6-methylphenyl)carbonyl]-4-[1,6-dimethyl-4-(trifluoromethyl)-2-oxo-3-pyridinyl]-L-phenylalanine] had a melting point of 220 to 223 °C. Moreover, the pIC50 in data set [1] was > 7.00. For `COCCC1(C(=O)N[C@@H](Cc2ccc(-c3c(C(F)(F)F)cc(C)n(C)c3=O)cc2)C(=O)O)CCCC1` [Example 37, N-[[1-(2-methoxyethyl)cyclopentyl]carbonyl]-4-[1,6-dimethyl-4-(trifluoromethyl)-2-oxo-3-pyridinyl]-L-phenylalanine], in that order: 181 to 183 °C and > 5.00.
